Reference: patent US9920069B2, “Compounds for treatment of fluoroquinolone-resistant bacteria” (The Board of Trustees of the University of Illinois, priority 2014, dated 2018)
≈ marks a conversion by molar mass, not a printed value. Entries after “also recorded” stand apart in the source; their conditions may differ. Like-named read-outs stand apart in the source and are kept apart here.

How the values were obtained:
[1] = tested on: S. aureus 29213 (WT GyrA and WT ParC); assay: microbe, parasite or virus in culture; assay type: cell-based; details: for MIC: Staphylococcus aureus, WT GyrA and WT ParC, read-out: MIC against S. aureus 29213
Procedure: (§1) Susceptibility testing was performed in triplicate using the microdilution broth method as outlined by the Clinical and Laboratory Standards Institute CLSI^52. MH broth was used.

A. baumannii ATCC 19606 = assay: microbe, parasite or virus in culture; assay type: cell-based; details: Acinetobacter baumannii, ATCC19606, gyrA none, parC none
Procedure: (§2) E. coli MG1655 and the ΔAcrB strain were obtained from Prof. Cari Vanderpool at UIUC.
as §1

E. coli ATCC 25922 = assay: microbe, parasite or virus in culture; assay type: cell-based; details: Escherichia coli, ATCC25922, gyrA none, parC none
Procedure: as §2, §1

P. aeruginosa PAO1 = assay: microbe, parasite or virus in culture; assay type: cell-based; details: Pseudomonas aeruginosa, gyrA none, parC none
Procedure: as §2, §1

PA1586 = assay: MIC, microdilution broth; assay type: cell-based, P. aeruginosa; details: Pseudomonas aeruginosa
Procedure: as §2, §1

A. baumannii KB349 = assay: MIC, microdilution broth; assay type: cell-based; details: Acinetobacter baumannii
Procedure: as §2, §1

[2] = tested on: MRSA clinical isolate SAU.3021; assay: MIC, microdilution broth; assay type: cell-based, S. aureus; details: Staphylococcus aureus, MRSA, read-out: MIC
Procedure: as §1

[3] = tested on: MRSA clinical isolate SAU.3026; assay: MIC, microdilution broth; assay type: cell-based, S. aureus; details: Staphylococcus aureus, MRSA, read-out: MIC
Procedure: as §1

[4] = tested on: MRSA clinical isolate SAU.447; assay: MIC, microdilution broth; assay type: cell-based, S. aureus; details: Staphylococcus aureus
Procedure: as §1

Enterococcus ATCC 29212 = assay: organism not typed; assay type: cell-based, E. faecalis; details: ATCC 29212, E. faecalis, gyrA WT, parC WT
Enterococcus ATCC 19433 = assay: organism not typed; assay type: cell-based, E. faecalis; details: ATCC 19433, E. faecalis; gyrA WT, parC WT; read-out: MIC
[5] = tested on: VRE clinical isolate S206; assay: organism not typed; assay type: cell-based, E. faecalis
Procedure: QRDR mutations were determined as described in the text using primers (primer sequences can be found in Table 7).
as §1

[6] = tested on: VRE harboring the S83I mutation (GyrA); assay: microbe, parasite or virus in culture; assay type: cell-based; details: Enterococcus
[7] = tested on: VRE with the S83R mutation (GyrA); assay: microbe, parasite or virus in culture; assay type: cell-based; details: Enterococcus
[8] = tested on: normal (i.e. non-cancerous) cell lines; details: cited from earlier work
[9] = tested on: S. aureus ATCC 29213 derived strains; assay: Resistant mutant generation (resistance frequency); details: development of DNM resistance in high level CIP resistant strains
Procedure: Agar plates (15 cm) were prepared containing MH broth and antibacterial compounds at concentrations detailed in the FIG. 10. 40 mL of an overnight bacterial culture was centrifuged at 3000×g for 10 min and resuspended in 0.4 mL of sterile PBS. Plates were inoculated with 100 μL of bacteria in PBS by spreading with beads. […] To determine the number of viable colonies spread onto each plate, dilutions of the overnight culture in sterile PBS were spread onto nonselective MH agar plates and plates were incubated overnight at 37° C. before counting colonies.

[10] = tested on: VRE clinical isolate S557; assay: organism not typed; assay type: cell-based, E. faecium; details: read-out: MIC
Herring Sperm DNA = assay type: binding; details: 30 min, pH 7.5
Procedure: FIG. 12. In vitro toxicity. A) Hemolysis assay. Human red blood cells were co-incubated with compound. After incubation for 2 h at 37° C., the supernatant was analyzed for hemolysis. Each compound was tested either at 160 μg mL^−1 or at the highest concentration which its solubility allowed. Concentrations (μg mL^−1) are indicated in parenthesis. The negative control is DMSO and the positive control is water. Data shown is from three independent replicates±SEM. B) Ethidium bromide (EtBr) intercalation assay. Compounds were incubated with Herring Sperm DNA, ethidium bromide, and compound of interest for 30 minutes. The solutions were then analyzed for ethidium bromide fluorescence. Any decrease in percentage fluorescence is indicative of compound intercalation. Doxorubicin (DOX) was used as a positive control.
These assays were performed as previously described (Bair et al. J. Am. Chem. Soc. 132, 5469-5478, (2010)). The ability of DNM-2 to intercalate into DNA was measured by an ethidium bromide displacement assay. Herring Sperm DNA (34 μg/mL final) was premixed with buffer containing ethidium bromide (50 mM Tris base, 100 mM NaCl, 1 mM EDTA, 5 μM EtBr, pH=7.5). 95 μL of this solution was added to a 96 well plate containing 5 μL of DMSO solutions of compounds. […] Fluorescence was then read on a Gemini microplate reader (Molecular Devices, excitation=545 nm, emission=595 nm).

[11] = Pharmacokinetic assessment, serum by HPLC; assay type: in vivo, C57BL/6 mice; details: mouse serum
Procedure: FIG. 13. Pharmacokinetic analysis of DNM, DNM-2, and DNM-3. C57/BL6 mice were treated with 50 mg kg^−1 DNM, DNM-2, or DNM-3 via oral gavage. After the indicated time points (15, 30, 60, 120, 240, and 480 min), mice were sacrificed and the serum concentrations of DNM, DNM-2, and DNM-3 was determined by HPLC.
The animal studies (PK, in vivo toxicity and in vivo efficacy) were carried out in strict accordance with the recommendations in the Guide for the Care and Use of Laboratory Animals of the National Institutes of Health. […] In these studies, 10-12 week old female C57BL/6 mice purchased from Charles River were used. DNM, DNM-2, and DNM-3 were formulated as slurries at 8.3 mg mL^−1 in 25% Cremophor RH40/water (v/v). Before beginning the pharmacokinetic assessment, mice were first tested for their ability to tolerate the DNM, DNM-2, and DNM-3 at 50 mg kg^−1 (p.o.). […] At specified time points, mice were sacrificed and blood was collected, centrifuged, and the serum was frozen at −80° C. until analysis. The proteins in a 50 μL aliquot of serum were precipitated by the addition of 50 μL of acetonitrile and the sample was centrifuged to remove the proteins. Serum concentrations of DNM, DNM-2, and DNM-3 were determined by HPLC. PK parameters were determined using GraphPad Prism Version 5.00 for Windows.

FQR MRSA (NRS3) = assay: Mouse sepsis model, survival; details: 50 mg kg^−1 oral gavage once-a-day 10 days; vs CIP and vehicle, P<0.005

| Structure (SMILES) | MIC [1] [µg/mL] | MIC (A. baumannii ATCC 19606) [µg/mL] | MIC (E. coli ATCC 25922) [µg/mL] | MIC (P. aeruginosa PAO1) [µg/mL] | MIC (PA1586) [µg/mL] | MIC (A. baumannii KB349) [µg/mL] | MIC [2] [µg/mL] | MIC [3] [µg/mL] | MIC [4] [µg/mL] | MIC (Enterococcus ATCC 29212; read-out: MIC) [µg/mL] | MIC (Enterococcus ATCC 19433) [µg/mL] | MIC [5] [µg/mL] | other results |
| --- | --- | --- | --- | --- | --- | --- | --- | --- | --- | --- | --- | --- | --- |
| Cc1cc(=O)n(C)c2c3c4c(cc12)c(C)cc(=O)n4CO3 [DNM, deoxynybomycin] | > 1 | > 4 | > 4 | > 4 | > 4 | > 4 | 0.031 (≈ 0.11 µM) | 0.125 (≈ 0.443 µM) | 0.063 (≈ 0.223 µM) | > 1 | > 1 | 1 (≈ 3.54 µM) | activity against FQ-sensitive strain 29213 ([1]; in words): modest activity; MIC (Enterococcus ATCC 29212): >1 µg/mL; MIC [6]: 0.125 to 1 µg/mL (≈ 0.443 to 3.54 µM); MIC [7]: ≥ 1 µg/mL; toxicity to normal cell lines [8]: non-toxic; resistance frequency [9]: 1×10^−10 to 7×10^−10 |
| CCn1c(=O)cc(C)c2cc3c(C)cc(=O)n4c3c(c21)OC4 [DNM-2] | 8 (≈ 27 µM) | > 24 | > 24 | > 24 | > 24 | > 24 | 0.063 (≈ 0.213 µM) | 0.125 (≈ 0.422 µM) | 0.125 (≈ 0.422 µM) | 8 (≈ 27 µM) | 8 (≈ 27 µM) | 2 (≈ 6.75 µM) | MIC [10]: 0.25 µg/mL (≈ 0.844 µM); concentration without significant DNA intercalation (Herring Sperm DNA): > 30 µM; AUC ([11]; 50 mg kg^−1 oral dose): 44000 ng·h/mL; Cmax / peak serum concentration ([11]; 50 mg kg^−1 oral dose): 12800 ng/mL; Cmax ([11]; 50 mg kg^−1 oral dose, read-out: Cmax / peak serum concentration): 42.6 µM; AUC ([11]; 50 mg kg^−1 oral gavage): 44000 ng·h/mL; Cmax ([11]; 50 mg kg^−1 oral gavage): 12800 ng/mL; Tmax ([11]; 50 mg kg^−1 oral gavage): 1.2 h; t1/2 ([11]; 50 mg kg^−1 oral gavage): 0.9 h; survival of mice infected with FQR MRSA (NRS3) (FQR MRSA (NRS3)): significant survival difference; also recorded: effective |
